Values joined by “and” are separate entries in the source; they are usually repeats but may differ in a detail not shown here. Equal values may be shown once.
system: not listed separately; assay: log P determination by HPLC on reversed-phase column (C 18), EEC Directive 79/831 Annex V.A8; format: physicochemical; settings: C 18 reversed phase, 40° C., 0.1% aqueous formic acid and acetonitrile, linear gradient 10% to 90% acetonitrile
Experimental: In table 1, the log P values were determined in accordance with EEC Directive 79/831 Annex V.A8 by HPLC (High Performance Liquid Chromatography) on a reversed-phase column (C 18), using the method described below: Temperature: 40° C.; Mobile phases: 0.1% aqueous formic acid and acetonitrile; linear gradient from 10% acetonitrile to 90% acetonitrile. Calibration was carried out using unbranched alkan-2-ones (comprising 3 to 16 carbon atoms) with known log P values (determination of the log P values by the retention times using linear interpolation between two successive alkanones). lambda-max-values were determined using UV-spectra from 200 nm to 400 nm and the peak values of the chromatographic signals.

Compound	logP
Cn1nc(C(F)F)c(C(=O)N(Cc2cccnc2C2(C)CC2)C2CC2)c1F [I.01]	1.28
Cn1nc(C(F)F)c(C(=O)N(Cc2cccnc2C2(C)CC2)C2CC2)c1Cl [I.02]	1.41
Cn1nc(C(F)F)c(C(=O)N(Cc2cc(Cl)cnc2C2(C)CC2)C2CC2)c1F [I.03]	2.88
Cn1nc(C(F)F)c(C(=O)N(Cc2cc(Br)cnc2C2(C)CC2)C2CC2)c1Cl [I.07]	3.12
Cn1nc(C(F)F)c(C(=O)N(Cc2sccc2C2(C)CC2)C2CC2)c1Cl [I.10]	3.85
Cc1cc(C2(C)CC2)c(CN(C(=O)c2c(C(F)F)nn(C)c2Cl)C2CC2)s1 [I.12]	4.27
Cn1nc(C(F)F)c(C(=O)N(Cc2sc(Br)cc2C2(Cl)CC2)C2CC2)c1F [I.18]	4.15
Cn1nc(C(F)F)c(C(=S)N(Cc2cccnc2C2(C)CC2)C2CC2)c1F [I.20]	1.53
Cc1cnc(C2(C)CC2)c(CN(C(=S)c2c(C(F)F)nn(C)c2Cl)C2CC2)c1 [I.21]	1.69
Cn1nc(C(F)F)c(C(=S)N(Cc2cc(Cl)cnc2C2(C)CC2)C2CC2)c1F [I.23]	3.52
Cc1cc(C2(Cl)CC2)c(CN(C(=S)c2c(C(F)F)nn(C)c2Cl)C2CC2)s1 [I.26]	4.56
Cn1nc(C(F)F)c(C(=S)N(Cc2sccc2C2(C)CC2)C2CC2)c1F [I.28]	4.28
Cn1nc(C(F)F)c(C(=O)N(Cc2cc(C3=CCCC3)cnc2C2(C)CC2)C2CC2)c1F [I.29]	2.05
Cn1nc(C(F)F)c(C(=O)N(Cc2cc(-c3ccsc3)cnc2C2(C)CC2)C2CC2)c1F [I.30]	2.12
C=Cc1cnc(C2(C)CC2)c(CN(C(=O)c2c(C(F)F)nn(C)c2Cl)C2CC2)c1 [I.32]	1.91

Next, values leading:

logP	Compound
3.09	Cn1nc(C(F)F)c(C(=O)N(Cc2cc(Cl)cnc2C2(C)CC2)C2CC2)c1Cl [I.04]
1.42	Cc1cnc(C2(C)CC2)c(CN(C(=O)c2c(C(F)F)nn(C)c2F)C2CC2)c1 [I.05]
1.54	Cc1cnc(C2(C)CC2)c(CN(C(=O)c2c(C(F)F)nn(C)c2Cl)C2CC2)c1 [I.06]
2.91	Cn1nc(C(F)F)c(C(=O)N(Cc2cc(Br)cnc2C2(C)CC2)C2CC2)c1F [I.08]
3.70	Cn1nc(C(F)F)c(C(=O)N(Cc2sccc2C2(C)CC2)C2CC2)c1F [I.09]
4.13	Cc1cc(C2(C)CC2)c(CN(C(=O)c2c(C(F)F)nn(C)c2F)C2CC2)s1 [I.11]
3.37	Cn1nc(C(F)F)c(C(=O)N(Cc2sccc2C2(Cl)CC2)C2CC2)c1F [I.13]
3.55	Cn1nc(C(F)F)c(C(=O)N(Cc2sccc2C2(Cl)CC2)C2CC2)c1Cl [I.14]
3.92	Cc1cc(C2(Cl)CC2)c(CN(C(=O)c2c(C(F)F)nn(C)c2Cl)C2CC2)s1 [I.16]
3.37	COC1(c2cc(C)sc2CN(C(=O)c2c(C(F)F)nn(C)c2F)C2CC2)CC1 [I.17]
1.63	Cn1nc(C(F)F)c(C(=S)N(Cc2cccnc2C2(C)CC2)C2CC2)c1Cl [I.19]
1.59	Cc1cnc(C2(C)CC2)c(CN(C(=S)c2c(C(F)F)nn(C)c2F)C2CC2)c1 [I.22]
3.71	Cn1nc(C(F)F)c(C(=S)N(Cc2cc(Cl)cnc2C2(C)CC2)C2CC2)c1Cl [I.24]
4.19	Cn1nc(C(F)F)c(C(=S)N(Cc2sccc2C2(Cl)CC2)C2CC2)c1Cl [I.25]
4.44	Cn1nc(C(F)F)c(C(=S)N(Cc2sccc2C2(C)CC2)C2CC2)c1Cl [I.27]
2.33	Cn1nc(C(F)F)c(C(=O)N(Cc2cc(-c3ccccc3)cnc2C2(C)CC2)C2CC2)c1Cl [I.31]

same assay, conditions: reversed-phase C18 HPLC column, C 18 reversed phase, 40° C., 0.1% aqueous formic acid and acetonitrile, linear gradient 10% to 90% acetonitrile

Compound	chromatographic logP
CC1(c2ccsc2CNC2CC2)CC1 [IIa.01, N-{[3-(1-methylcyclopropyl)-2-thienyl]methyl}cyclopropanamine]	0.7
COC1(c2cc(C)sc2CNC2CC2)CC1 [IIa.04, N-{[3-(1-methoxycyclopropyl)-5-methyl-2-thienyl]methyl}cyclopropanamine]	1.07
O=Cc1sccc1C1(Cl)CC1 [IV.01, 3-(1-chlorocyclopropyl)thiophene-2-carbaldehyde]	2.41
Cc1cc(C2(Cl)CC2)c(C=O)s1 [IV.02, 3-(1-chlorocyclopropyl)-5-methylthiophene-2-carbaldehyde]	2.75
CC1(c2ccsc2CO)CC1 [Vc.01, [3-(1-methylcyclopropyl)-2-thienyl]methanol]	2.09

Continued, values first:

chromatographic logP	Compound
3.76	Cc1cc(C2(Cl)CC2)c(CN(C(=O)c2c(C(F)F)nn(C)c2F)C2CC2)s1 [I.15, N-{[3-(1-chlorocyclopropyl)-5-methyl-2-thienyl]methyl}-N-cyclopropyl-3-(difluoromethyl)-5-fluoro-1-methyl-1H-pyrazole-4-carboxamide]
0.87	ClC1(c2ccsc2CNC2CC2)CC1 [IIa.02, N-{[3-(1-chlorocyclopropyl)-2-thienyl]methyl}cyclopropanamine]
1.2	Cc1cc(C2(Cl)CC2)c(CNC2CC2)s1 [IIa.03, N-{[3-(1-chlorocyclopropyl)-5-methyl-2-thienyl]methyl}cyclopropanamine]
2.14	CC1(c2ccsc2CBr)CC1 [Va1.01, 2-(bromomethyl)-3-(1-methylcyclopropyl)thiophene]
2.54	Cc1cc(C2(C)CC2)c(CBr)s1 [Va1.02, 2-(bromomethyl)-5-methyl-3-(1-methylcyclopropyl)thiophene]
2.52	Cc1cc(C2(C)CC2)c(CO)s1 [Vc.02, [5-methyl-3-(1-methylcyclopropyl)-2-thienyl]methanol]
0.63	N#CC1(c2ccsc2CO)CC1 [Vc.03, 1-[2-(hydroxymethyl)-3-thienyl]cyclopropanecarbonitrile]

system: Uromyces appendiculatus; assay: In vivo preventive test on Uromyces appendiculatus (bean rust); settings: Table B2, dose 100 ppm, bean plants, comparison with isopropyl analogues of WO2012/059497
Experimental: EXAMPLE B: IN VIVO PREVENTIVE TEST ON UROMYCES APPENDICULATUS (BEAN RUST) Solvent: 5% by volume of Dimethyl sulfoxide • 10% by volume of Acetone Emulsifier: 1 μL of Tween® 80 per mg of active ingredient The active ingredients are made soluble and homogenized in a mixture of Dimethyl sulfoxide/Acetone//Tween® 80 and then diluted in water to the desired concentration. The young plants of bean are treated by spraying the active ingredient prepared as described above. Control plants are treated only with an aqueous solution of Acetone/Dimethyl sulfoxide/Tween® 80. After 24 hours, the plants are contaminated by spraying the leaves with an aqueous suspension of Uromyces appendiculatus spores. The contaminated bean plants are incubated for 24 hours at 20° C. and at 100% relative humidity and then for 10 days at 20° C. and at 70-80% relative humidity. The test is evaluated 11 days after the inoculation. 0% means an efficacy which corresponds to that of the control plants while an efficacy of 100% means that no disease is observed.

Compound	Efficacy
Cc1cc(C(C)C)c(CN(C(=O)c2c(C(F)F)nn(C)c2F)C2CC2)s1 [CMP1, N-cyclopropyl-3-(difluoromethyl)-5-fluoro-N-[(3-isopropyl-5-methyl-2-thienyl)methyl]-1-methyl-1H-pyrazole-4-carboxamide, reference compound]	65%
Cc1cc(C(C)C)c(CN(C(=O)c2c(C(F)F)nn(C)c2Cl)C2CC2)s1 [CMP2, 5-chloro-N-cyclopropyl-3-(difluoromethyl)-N-[(3-isopropyl-5-methyl-2-thienyl)methyl]-1-methyl-1H-pyrazole-4-carboxamide, reference compound]	0%
Cc1cc(C2(C)CC2)c(CN(C(=O)c2c(C(F)F)nn(C)c2F)C2CC2)s1 [I.11]	100%
Cc1cc(C2(C)CC2)c(CN(C(=O)c2c(C(F)F)nn(C)c2Cl)C2CC2)s1 [I.12]	100% and 92%
